Laboratory results taken from US20260274861A1, “FUSED RING COMPOUND, PREPARATION METHOD THEREFOR AND MEDICINAL APPLICATION THEREOF” (JIANGSU HENGRUI PHARMACEUTICALS CO., LTD., priority 2022, published 2026).

How the values were obtained:
Type in all cases: cell-based
[1] = test system: GP2d cells; test: Inhibition of 3D proliferation of GP2d cells (CellTiter-Glo 3D); settings: 120 h, 5 days
Method: (§1) The inhibitory effects of the compounds of the present disclosure on the KRAS target were evaluated by assessing the inhibitory effects of the compounds of the present disclosure on the 3D proliferation of GP2d and AGS cells.
(§2) GP2d cells were cultured in a complete culture medium, namely a DMEM/high glucose culture medium (Hyclone, SH30243.01) containing 10% fetal bovine serum (Corning, 35-076-CV). On the first day of the experiment, the GP2d cells were seeded into a 96-well low-adsorption plate (Corning, CLS7007-24EA) with a complete culture medium at a density of 1000 cells/well, with each well containing 90 μL of a cell suspension. The plate was centrifuged at 2000 rpm for 5 min at room temperature and then incubated overnight in a 37° C., 5% CO2 cell incubator.
(§3) The next day, the test compounds, serially diluted in a complete culture medium, were added at 10 μL/well. The final concentrations of the compounds for GP2d cells were 9 concentration points obtained by 5-fold serial dilution from 1 μM, and the final concentrations of the compounds for AGS cells were 9 concentration points obtained by 5-fold serial dilution from […]. A blank control containing 0.5% DMSO was set for both types of cells. The plates were incubated in a 37° C., 5% CO2 cell incubator for 5 days. On the seventh day, the 96-well cell culture plates were taken out, and 50 μL of the CellTiter-Glo® 3D Cell Viability Assay reagent (Promega, G^9682) was added to each well. The plates were shaken at room temperature in the dark for 25 min. The contents in the wells were pipetted for good uniformity, and 100 μL of the mixture was transferred from each well to a white impermeable 96-well plate (PerkinElmer, 6005290). The luminescence signal values were obtained using a multi-mode microplate reader (PerkinElmer, EnVision2105).

[2] = test system: AsPC-1 cells; test: Inhibition of 3D proliferation of AsPC-1 cells (CellTiter-Glo 3D); settings: Homo sapiens, ASPC1, 120 h, 5 days
Method: On the first day of the experiment, well-grown AsPC-1 cells with 70%-80% confluency were digested and resuspended in an RPMI 1640 culture medium (Hyclone, SH30809.01) containing 10% FBS, and the cell density was adjusted to the desired level. The cell suspension was added to a U-shaped low-adsorption 96-well plate (Corning, CLS7007-24EA) at 90 μL/well, with a cell density of 1500 cells/well. The cell plate was centrifuged at 2500 rpm for 5 min and then incubated overnight in a 37° C., 5% CO2 incubator. The next day, 20 mM test compounds dissolved in DMSO were diluted to an initial concentration of 2 mM and then serially diluted 5-fold, and a total of 9 concentration points were obtained. Control wells were set using DMSO. The serially diluted compounds were then further diluted 20-fold with a culture medium. The test compounds, diluted with the culture medium, were added to the cell plate at 10 μL/well, with the final concentrations of the compounds being 9 concentration points obtained by 5-fold serial dilution from an initial concentration of 10 μM. Cell wells containing 0.5% DMSO were set as vehicle control wells, and wells containing only the culture medium and 0.5% DMSO were set as blank control wells. A duplicate well was set for each concentration of the compounds and the control wells, with the final concentration of DMSO in each well being 0.5%. The cell plate was centrifuged at 2500 rpm for 3 min and then incubated in a 37° C., 5% CO2 incubator for 5 days. On the seventh day, the 96-well cell culture plate was taken out, and 50 μL of the CellTiter-Glo® Luminescent 3D Cell Viability Assay reagent (Promega, G^9683) was added to each well. The plates were shaken at room temperature in the dark for 25 min. The contents in the wells were pipetted up and down for good uniformity, and then 100 μL of the mixture was transferred from each well to a white impermeable OptiPlate™-96-well plate (PerkinElmer, 6005290). The luminescence signal values were obtained using a multi-mode microplate reader (PerkinElmer, EnVision2105).
The inhibition rate was calculated using the formula: inhibition rate=(luminescence valuevehicle control well−luminescence valuetest compound)/(luminescence valuevehicle control well−luminescence valueblank control well)×100%. Curves were plotted using GraphPad Prism software based on the various concentrations of the compounds and the corresponding inhibition rates, and IC50 values for the compounds were calculated.

[3] = test system: AGS cells; test: Inhibition of 3D proliferation of AGS cells (CellTiter-Glo 3D); settings: Homo sapiens, 120 h, 5 days
Method: as §1
as §2, with “AGS” for “GP2d”, “an RPM11640” for “a DMEM/high glucose culture”, “SH30809.01)” for “SH30243.01)”
as §3

| Compound | IC50 [1] [nM] | IC50 [2] [nM] | IC50 [3] [nM] |
| --- | --- | --- | --- |
| Cc1cc(N)c(F)c(-c2nc3c4c(nc(OCC5(CN6CCC(=C(F)F)CC6)CC5)nc4c2F)N2C[C@H]4CC[C@H](N4)[C@H]2[C@H](C)O3)c1C(F)(F)F [Example 40, 3-((5S,5aS,6S,9R)-12-((1-((4-(Difluoromethylene)piperidin-1-yl)methyl)cyclopropyl)methoxy)-1-fluoro-5-methyl-5a,6,7,8,9,10-hexahydro-5H-4-oxa-3,10a,11,13,14-pentaaza-6,9-methanonaphtho[1,8-ab]heptalen-2-yl)-2-fluoro-5-methyl-4-(trifluoromethyl)aniline] | 0.6 |  |  |
| CCc1c(F)ccc2cc(O)cc(-c3nc4c5c(nc(OCC6(CN7CC8CC(=C(F)F)CC8C7)CC6)nc5c3F)N3C[C@H]5CC[C@H](N5)[C@H]3[C@H](C)O4)c12 (stereo partly drawn) [Example 14] | 1.6 |  |  |
| CCc1c(F)ccc2cc(O)cc(-c3nc4c5c(nc(OCC67CCCN6CC(=C(F)F)C7)nc5c3F)N3C[C@H]5CC[C@H](N5)[C@H]3[C@H](C)O4)c12 (stereo partly drawn) [Example 18, 4-((5S,5aS,6S,9R)-12-((2-(Difluoromethylene)tetrahydro-1H-pyrrolizin-7a(5H)-yl)methoxy)-1-fluoro-5-methyl-5a,6,7,8,9,10-hexahydro-5H-4-oxa-3,10a,11,13,14-pentaaza-6,9-methanonaphtho[1,8-ab]heptalen-2-yl)-5-ethyl-6-fluoronaphthalen-2-ol] | 1.2 |  |  |
| C=C1CN2CC(=C)CC2(COc2nc3c4c(nc(-c5cc(O)cc6ccc(F)c(CC)c56)c(F)c4n2)O[C@@H](C)[C@@H]2[C@@H]4CC[C@H](CN32)N4)C1 [Example 17, 4-((5S,5aS,6S,9R)-12-((2,6-Dimethylenetetrahydro-1H-pyrrolizin-7a(5H)-yl)methoxy)-1-fluoro-5-methyl-5a,6,7,8,9,10-hexahydro-5H-4-oxa-3,10a,11,13,14-pentaaza-6,9-methanonaphtho[1,8-ab]heptalen-2-yl)-5-ethyl-6-fluoronaphthalen-2-ol] | 0.9 |  |  |
| C[C@@H]1Oc2nc(-c3ccc(F)c4sc(N)c(C#N)c34)c(F)c3nc(OCC4(CN5CCC(=C(F)F)CC5)CC4)nc(c23)N2C[C@H]3CC[C@H](N3)[C@@H]12 [Example 41, 2-Amino-4-((5S,5aS,6S,9R)-12-((1-((4-(difluoromethylene)piperidin-1-yl)methyl)cyclopropyl)methoxy)-1-fluoro-5-methyl-5a,6,7,8,9,10-hexahydro-5H-4-oxa-3,10a,11,13,14-pentaaza-6,9-methanonaphtho[1,8-ab]heptalen-2-yl)-7-fluorobenzo[b]thiophene-3-carbonitrile] | 0.4 | 3.7 |  |
| CCc1c(F)ccc2cc(O)cc(-c3nc4c5c(nc(OCC6(CN7CCOCC7)CC6)nc5c3F)N3C[C@H]5CC[C@H](N5)[C@H]3[C@H](C)O4)c12 [Example 5, 5-Ethyl-6-fluoro-4-((5S,5aS,6S,9R)-1-fluoro-5-methyl-12-((1-(morpholinomethyl)cyclopropyl)methoxy)-5a,6,7,8,9,10-hexahydro-5H-4-oxa-3,10a,11,13,14-pentaaza-6,9-methanonaphtho[1,8-ab]heptalen-2-yl)naphthalen-2-ol] | 0.9 | 5.7 | 8.7 |
| CCc1c(F)ccc2cc(O)cc(-c3nc4c5c(nc(OCC6(CN7CCC(=CF)CC7)CC6)nc5c3F)N3C[C@H]5CC[C@H](N5)[C@H]3[C@H](C)O4)c12 [Example 23, 5-Ethyl-6-fluoro-4-((5S,5aS,6S,9R)-1-fluoro-12-((1-((4-(fluoromethylene)piperidin-1-yl)methyl)cyclopropyl)methoxy)-5-methyl-5a,6,7,8,9,10-hexahydro-5H-4-oxa-3,10a,11,13,14-pentaaza-6,9-methanonaphtho[1,8-ab]heptalen-2-yl)naphthalen-2-ol] | 0.2 | 7.9 |  |
| Cc1nc(N)cc(-c2nc3c4c(nc(OCC5(CN6CCC(=CF)CC6)CC5)nc4c2F)N2C[C@H]4CC[C@H](N4)[C@H]2[C@H](C)O3)c1C(F)(F)F [Example 42, 4-((5S,5aS,6S,9R)-1-Fluoro-12-((1-((4-(fluoromethylene)piperidin-1-yl)methyl)cyclopropyl)methoxy)-5-methyl-5a,6,7,8,9,10-hexahydro-5H-4-oxa-3,10a,11,13,14-pentaaza-6,9-methanonaphtho[1,8-ab]heptalen-2-yl)-6-methyl-5-(trifluoromethyl)pyridin-2-amine] | 0.21 | 1.8 | 5.2 |
| C[C@@H]1Oc2nc(-c3cc(N)cc(Cl)c3C(F)(F)F)c(F)c3nc(OCC4(CN5CCC(=CF)CC5)CC4)nc(c23)N2C[C@H]3CC[C@H](N3)[C@@H]12 [Example 36, 3-Chloro-5-((5S,5aS,6S,9R)-1-fluoro-12-((1-((4-(fluoromethylene)piperidin-1-yl)methyl)cyclopropyl)methoxy)-5-methyl-5a,6,7,8,9,10-hexahydro-5H-4-oxa-3,10a,11,13,14-pentaaza-6,9-methanonaphtho[1,8-ab]heptalen-2-yl)-4-(trifluoromethyl)aniline] | 0.06 | 0.2 | 0.9 |
| CCc1c(F)ccc2cc(O)cc(-c3nc4c5c(nc(OCC6(CN7CC/C(=C\F)C7)CC6)nc5c3F)N3C[C@H]5CC[C@H](N5)[C@H]3[C@H](C)O4)c12 [Example 11, 5-Ethyl-6-fluoro-4-((5S,5aS,6S,9R)-1-fluoro-12-((1-(((E)-3-(fluoromethylene)pyrrolidin-1-yl)methyl)cyclopropyl)methoxy)-5-methyl-5a,6,7,8,9,10-hexahydro-5H-4-oxa-3,10a,11,13,14-pentaaza-6,9-methanonaphtho[1,8-ab]heptalen-2-yl)naphthalen-2-ol] | 0.7 |  |  |
| Cc1cc(N)c(F)c(-c2nc3c4c(nc(OCC5(CN6CCC(=CF)CC6)CC5)nc4c2F)N2C[C@H]4CC[C@H](N4)[C@H]2[C@H](C)O3)c1C(F)(F)F [Example 38, 2-Fluoro-3-((5S,5aS,6S,9R)-1-fluoro-12-((1-((4-(fluoromethylene)piperidin-1-yl)methyl)cyclopropyl)methoxy)-5-methyl-5a,6,7,8,9,10-hexahydro-5H-4-oxa-3,10a,11,13,14-pentaaza-6,9-methanonaphtho[1,8-ab]heptalen-2-yl)-5-methyl-4-(trifluoromethyl)aniline] | 0.07 | 1.7 | 5 |
